Among the data in a melting point compilation (Tetko et al.; mined from patent text by program, amines drawn as free bases though some values may be those of a salt) are melting point values, retold here.

Molecules are shown by their SMILES. Where only a bound is given, the exact number is not on record here.

One may read the melting point as the temperature of the solid-liquid transition. `COc1cc(OC)c(-c2c[nH]c(C3CC3)n2)cc1C=CC(=O)c1ccc(S(N)(=O)=O)cc1` gave a melting point of 156 to 160 °C.

The compound `N[C@@H](CC(=O)N1CCn2c(nnc2C(F)(F)F)C1)Cc1cc(F)c(F)cc1F` gave a melting point of 118 °C.

With `CC1Cc2cc(Cl)ccc2C(c2ccc([N+](=O)[O-])cc2)O1` (stereo unspecified), the melting point was in the range of 118 to 120 °C.

Take `CCCCCCCCCCCCCC(=O)Nc1ccc(Cl)c(NC(=CC(=O)OCC)NNc2c(Cl)cc(Cl)cc2Cl)c1`: the melting point was in the range of 91 to 93 °C.

Regarding `Nc1ccc2c(c1)N(C1CCN(CCc3ccc(F)cc3)CC1)CC2`, the melting point lay in the range of 104 to 106 °C.

On to `COc1ccccc1COc1ccc(S(=O)(=O)c2ccc(C)nc2Nc2cc(F)c(N(C)C)cc2Cl)cc1`, for which the melting point fell in the range of 68 to 70 °C.

Consider `Cc1cc(=O)oc2cc(OS(N)(=O)=O)ccc12`, for which the melting point is 161 to 164 °C.

For the compound `CC(C)(C)OC(=O)NNc1ccc2ccccc2n1`, the melting point lay within 148 to 150 °C.

In turn, `O=C(O)c1c(Cl)c(Cl)cc([N+](=O)[O-])c1Cl` came in with a melting point of 149 to 151 °C.

`OC(CCN1CCC(c2ccccc2)CC1)c1ccc(-c2ccccc2)cc1` (stereo unspecified) yielded a melting point of 99 to 101 °C.

With `CCN(Cc1ccccc1)C(=O)c1c(-c2ccncc2)c(-c2ccc(F)cc2)nn1CC`, the melting point is 115 to 117 °C.

Turning to `CC(O)(CCCl)c1ccc(-c2cccc(Cl)c2)cc1` (stereo unspecified), the melting point lay in the range of 98 to 100 °C.

As for `NCc1cc2cc(Cl)cc(-c3ccccc3)c2o1`, the melting point was greater than 225 °C.

In turn, `COCc1c(C(=O)OC(C)C)ncc2c1c1c(OCc3ccccc3)cccc1n2CC(=O)N(C)Cc1ccccc1` gave a melting point of 155 to 157 °C.

For `COc1c(N2CC[C@@H](C(C)(C)NC(=O)OC(C)(C)C)C2)c(F)cc2c(=O)c(C(=O)O)cn(C3CC3)c12`, the melting point lay within 70 to 72 °C.

In the case of `CSc1cccc(COCCCn2ccnc2)c1NC(=O)CC1c2ccccc2Oc2ccccc21`, the melting point was in the range of 176 to 177 °C.

Compound `N#CN=C(Nc1ccc(Cl)nc1)Oc1ccccc1` registered a melting point of 133 to 134 °C.

Compound `O=C1CCC(N2Cc3cc(CNC(=O)Nc4ccccc4)ccc3C2=O)C(=O)N1` (stereo unspecified) came in with a melting point of 243 to 245 °C.

On to `CC(=O)N1N=C(c2ccc(N)cc2)c2cc(Cl)ccc2CC1C` (stereo unspecified), for which the melting point lay within 187 to 189 °C.

Take `O=c1c2c([nH]c3cn[nH]c13)CCCC2`: the melting point was greater than 325 °C.

Regarding `COc1cc2c(Nc3ccc(Br)cc3F)ncnc2cc1OCCCSC`, the melting point lay within 250 to 252 °C.

`COc1cc(OC)nc(C(=O)c2nscc2C(=O)N(C)c2ccccc2)n1` registered a melting point of 140 to 142 °C.

In the case of `COc1cc2cc3c(Cl)ncnc3cc2cc1OCCN1CCOCC1`, the melting point was in the range of 166 to 168 °C.

In the case of `CC1Nc2ccccc2N2CCc3cc(Cl)cc1c32` (stereo unspecified), the melting point was in the range of 167 to 170 °C.

Take `Oc1c(Cl)cc(NCCCCCCBr)cc1Cl`: the melting point is 182 to 183 °C.

Compound `CC(=O)c1ccc(-c2ccc(F)cc2)c(N)c1` showed a melting point of 88 to 91 °C.

`CCCCCCCCCCCCCCCCS(N)(=O)=O`: the melting point was 98 to 100 °C.

Compound `CCCCC(Cc1ccc(OCCCN(C)C(=O)c2ccc(-c3ccccn3)cc2)cc1)C(=O)O` (stereo unspecified) registered a melting point of 110 to 112 °C.

The compound `CCCCCNC(=O)[C@H](Cc1ccc(OCC(=O)O)c(-c2cc(O)no2)c1)NC(=O)[C@H](Cc1ccccc1)NC(=O)OC(C)(C)C` returned a melting point of 122 to 123 °C.

For the compound `CC1(C)CON(Cc2cc(N3C(=O)C4=C(CCCC4)C3=O)c(F)cc2Cl)C1=O`, the melting point lay in the range of 136 to 138 °C.

For `Cc1cc(C(=O)O)cc2c1[nH]c1ccccc12`, the melting point is greater than 240 °C.

Turning to `CN(C)Nc1c(-c2c(F)cc(F)cc2F)c(Cl)nc2ncnn12`, the melting point was 165 to 168 °C.

`COC(=O)n1c(Cl)nc2c(C)cccc21` displayed a melting point of 90 to 91 °C.

With `Cc1nc2c(O)cccc2n1C`, the melting point was 243 to 245 °C.

On to `CC(C)c1nc(COC(N)=O)n(Cc2ccc[nH]c2=O)c1Sc1cc(Cl)cc(Cl)c1`, for which the melting point is 214 °C.

`CC(C)(C)NS(=O)(=O)c1ccccc1CCOS(C)(=O)=O`: the melting point lay in the range of 106 to 108 °C.

The compound `CCn1c(N)c(C(N)=O)c(=O)c2ccc(-c3ccncc3)cc21` yielded a melting point greater than 300 °C.

`CN=C(NS(=O)(=O)c1ccc(Cl)cc1)C1=NN(c2ccc(Cl)cc2Cl)C(c2ccccc2)C1` (stereo unspecified) yielded a melting point of 128 to 130 °C.

`O=C(NCC12CC3CC(CC(C3)C1)C2)c1cc(-c2cc(F)ccc2C(=O)O)ccc1Cl`: the melting point is 120 to 124 °C.

The compound `Nn1ncc2c1-c1cc3ccccc3nc1CC2` displayed a melting point of 235 °C.

Regarding `O=C1c2ccc(Cl)cc2OCN1CCO[N+](=O)[O-]`, the melting point was 86 to 88 °C.

Consider `Clc1ccc(N2CCN(CCCc3c4c(nn3-c3ccccc3)CCCC4)CC2)cc1`, for which the melting point is 127 to 129 °C.

`CC(C)(C)NC(=O)C(=O)c1ccccc1` registered a melting point of 76 to 77 °C.

For `O=c1ccn(CCO)c(C(O)c2ccc3c(c2)OCO3)c1OCc1ccccc1` (stereo unspecified), the melting point was 195 to 196 °C.

As for `COc1cc(N(Cc2cncs2)c2ccc(C(=O)O)cc2)ccc1C(N)=O`, the melting point is 197 °C.

Turning to `CC(=O)NC[C@H]1CN(c2ccc(N3CCC(n4cc(C#N)nn4)CC3)c(F)c2)C(=O)O1`, the melting point fell in the range of 148 to 150 °C.

In turn, `FC(F)(F)C(c1ccc(Cl)cc1)C(c1ccccc1)c1ccc(OCC2CO2)cc1` (stereo unspecified) displayed a melting point of 141 to 144 °C.

For the compound `O=C(O)c1cc(-n2c(-c3ccc([N+](=O)[O-])cc3)cc3c2CCCC3)ccc1O`, the melting point is 241 to 242 °C.

The compound `CC(C)(C)OC(=O)N1CCN(C(=O)Cn2sc3ccccc3c2=O)CC1` gave a melting point of 120 to 122 °C.

`CN1C(=O)SC(C)(C)[C@@H]1[C@@H](CS(=O)(=O)c1ccc(Oc2ccc(OC(F)(F)F)cc2)cc1)N(O)C=O` displayed a melting point of 84 to 86 °C.

`O=C1N(Cc2ccccc2)Cc2cccnc2N1c1cccc([N+](=O)[O-])c1` registered a melting point of 144 to 145 °C.

In turn, `O=C(NCc1ccc(Cl)cc1)c1cnc2ccc(CO)cc2c1O` returned a melting point of 288 to 289 °C.

The compound `COc1ccc(N2CCN(c3ccc(OC)nc3-c3ccc(OC)cc3CO)CC2)cc1` showed a melting point of 163 to 165 °C.

`CC(C)(C)C1CCc2nnc(Cl)cc2C1` (stereo unspecified) returned a melting point of 96 to 97 °C.

`N#Cc1cnc(N)nc1-c1ccc(Cl)cc1C(=O)c1ccccc1F` had a melting point of 153 to 157 °C.

In turn, `Cc1ccccc1CC(=O)N1CCN(c2nccs2)CC1` yielded a melting point of 110 to 111 °C.

`CCCCc1nn(-c2cc(NC(=O)c3ccccc3)ccc2Br)c(=O)n1Cc1ccc(-c2ccccc2S(=O)(=O)NC(=O)OC(C)(C)C)cc1F` showed a melting point of 130 to 133 °C.

On to `CNc1cc(-c2sc(N)nc2-c2cccc(C)n2)ccc1[N+](=O)[O-]`, for which the melting point lay within 100 to 102 °C.

Compound `N#Cc1ccc(N2CCCCO2)c2ccccc12` came in with a melting point of 111 to 112 °C.

Take `Cc1cc2c(cc1[N+](=O)[O-])C(C)(C)CCC2(C)C`: the melting point lay within 143 to 144 °C.

`COc1cc2cc(CO)nc(-c3ccc([N+](=O)[O-])cc3)c2cc1OC` had a melting point of 260 to 263 °C.

The compound `COc1nc(C)cc(C(=O)NS(=O)(=O)c2ccccc2[N+](=O)[O-])n1` displayed a melting point of 212 to 216 °C.

`COc1ccc(CN(C)CCOc2ccc(NC(=O)c3cc(SC)cc4c(=O)c5ccccc5[nH]c34)cc2)cc1OC` came in with a melting point of 170 °C.

Compound `COc1ccc2c(c1)[nH]c(=O)c(=O)n2C` came in with a melting point of 332 °C.

With `CN(C)CCc1c[nH]c2ccc(C#CCOCc3ccccc3)cc12`, the melting point is 93 to 95 °C.

As for `O=C(O)CCc1nc(-c2ccccc2)cs1`, the melting point was in the range of 72 to 73 °C.

Regarding `CNCC(=O)Nc1ccc(C2=NN(C(C)=O)C(C)Cc3cc4c(cc32)OCO4)cc1` (stereo unspecified), the melting point lay within 220 to 222 °C.

The compound `COc1ccc(Cl)cc1C(=O)NCCc1ccc(C=CC(=O)O)cc1` had a melting point of 197 to 198 °C.

On to `O=S(=O)(CCN1CCCCC1)Nc1cc(C(c2cc(F)ccc2F)S(=O)(=O)c2ccc(Cl)cc2)c(Cl)cn1` (stereo unspecified), for which the melting point lay within 200 to 203 °C.

Take `CCOc1cc(OCC2CCN(C)CC2)c(F)c(C(Nc2ccc(C(=N)N)cc2)C(=O)O)c1` (racemic): the melting point came to 232 °C.

Regarding `O=C1NC(=O)c2ccc(Br)cc2/C1=C/N1CCN(CCN2CCOCC2)CC1`, the melting point amounted to 156 °C.

On to `N#CC=CNCC(=O)c1cccc(Cl)c1Cl`, for which the melting point is 125 to 127 °C.

Turning to `COC(=O)C(CCn1c(Cl)ccc1C(=O)c1ccc(Cl)cc1)C(=O)OC`, the melting point lay in the range of 72.5 to 73.5 °C.

For `O=C(O)c1cccc(CN2C(=O)C3(COc4cc5c(cc43)OCCO5)c3ccccc32)c1` (stereo unspecified), the melting point lay in the range of 254 to 258 °C.

On to `Cc1nc(-n2cnn(CCOC(=O)NCc3ccc(F)cc3)c2=O)sc1C(=O)NCc1cccnc1`, for which the melting point lay in the range of 149 to 150 °C.

`CSC(=NC#N)NCCN1CCC(Nc2nc3cccnc3n2Cc2ccc(F)cc2)CC1`: the melting point worked out at 172 °C.

`NC1CCN(c2ncc3ncnc(Nc4ccc(F)c(Cl)c4)c3n2)C1` (stereo unspecified) registered a melting point of 174 to 176 °C.

`CC(C)N(C[C@@H]1CCC[C@H](CN(C(=O)Nc2ccc(N(C)C)cc2)C(C)C)C1)C(=O)Nc1ccc(N(C)C)cc1` came in with a melting point of 139 to 141 °C.

`COC(=O)c1ccc2oc3ccccc3c2c1C(=O)OC`: the melting point was 126 °C.

Take `CC=Cc1cc(OC)c(OC)cc1Cc1cnc(N)nc1N`: the melting point was in the range of 204 to 208 °C.

In the case of `N#Cc1cc(F)c(-n2nc3ccc(Cl)cn3c2=O)cc1O`, the melting point was greater than 260 °C.

For the compound `O=[N+]([O-])c1cc(OCc2ccccc2)c2ccccc2c1CCO`, the melting point lay in the range of 82 to 90 °C.

On to `COc1ccc(-c2nc(C)c(C(N)=O)s2)cc1OC`, for which the melting point fell in the range of 218 to 220 °C.

With `COC(=O)c1ccc(C(=O)Nc2sc3c(c2C(=O)NCc2ccc4c(c2)OCO4)CCCC3)cc1`, the melting point was 138 °C.

For the compound `CC(C)(Cc1ccc(Cl)cc1)C(C#N)C(=O)O` (stereo unspecified), the melting point was 137 to 138 °C.

With `CC(C)CSCc1c(-c2ccc(S(C)(=O)=O)cc2)cnn(-c2ccc(F)cc2)c1=O`, the melting point was 45 to 60 °C.
